Activity calls are given as the source filed them. The calls are words filed in the database; no cut-off is given here.
Assays:
[1] = molecular target: Glycogen synthase kinase-3 beta (Homo sapiens) (UniProt P49841); assay: Inhibition of recombinant human full-length His-tagged GSK3B expressed in baculovirus expression system at 2 uM using Ser/Thr 09 as substrate measured after 1 hr by Z'-LYTE assay relative to control
[2] = molecular target: Tyrosine-protein kinase Srms (Homo sapiens) (UniProt Q9H3Y6); assay: Inhibition of recombinant human full length GST-tagged SRMS expressed in insect cells at 2 uM using Tyr 01 as substrate measured after 1 hr by Z'-LYTE assay relative to control; settings: Insect cell
U-87 MG = assay: Antitumor activity against human U-87MG cells assessed as lactate production incubated for 24 hrs; format: functional, cell-based; settings: U-87MG ATCC, dose 0.01-10 µmol/L
[3] = molecular target: Serine/threonine-protein kinase 4 (Homo sapiens) (UniProt Q13043); assay: Inhibition of recombinant human full length GST-tagged STK4 expressed in insect cells at 2 uM using Ser/Thr 07 as substrate measured after 1 hr by Z'-LYTE assay relative to control; settings: Insect cell
[4] = molecular target: Muscle, skeletal receptor tyrosine-protein kinase (Homo sapiens) (UniProt O15146); assay: Inhibition of recombinant human GST-tagged MUSK (519-869 residues) expressed in insect cells at 2 uM using Tyr 04 as substrate measured after 1 hr by Z'-LYTE assay relative to control; settings: Insect cell
PC3MM2 = assay: Antitumor activity against human PC3MM2 cells assessed as block the hypoxia-induced VEGF production in low oxygen at 0.3 micromol/L incubated for 24 hrs by ELISA analysis; format: functional, cell-based; settings: dose 0.3 µmol/L
MDA-MB-361 [5] = assay: Antitumor activity against human MDA-MB-361 cells xenografted in female nude mouse model assessed as substantial regression in tumor at 50 mg/kg, po qd administered as 5 days on/2 days off regimen for 4 cycles; format: functional, organism-based; settings: time 28.0 day
[6] = molecular target: Serine/threonine-protein kinase Sgk2 (Homo sapiens) (UniProt Q9HBY8); assay: Inhibition of recombinant human GST-tagged SGK2 (54-427 residues) expressed in insect cells at 2 uM using Ser/Thr 06 as substrate measured after 1 hr by Z'-LYTE assay relative to control; settings: Insect cell
[7] = molecular target: Ephrin type-A receptor 3 (Homo sapiens) (UniProt P29320); assay: Inhibition of recombinant human His-tagged EPHA3 (568-976 residues) expressed in baculovirus expression system at 2 uM measured after 1 hr by Z'-LYTE assay relative to control
[8] = molecular target: Casein kinase I isoform gamma-2 (Homo sapiens) (UniProt P78368); assay: Inhibition of recombinant human full-length His-tagged CSNK1G2 expressed in baculovirus expression system at 2 uM using Ser/Thr 05 as substrate measured after 1 hr by Z'-LYTE assay relative to control
[9] = molecular target: Calcium/calmodulin-dependent protein kinase type II subunit beta (Homo sapiens) (UniProt Q13554); assay: Inhibition of recombinant human full-length His-tagged CAMK2B expressed in insect cells at 2 uM using Ser/Thr 17 as substrate measured after 1 hr by Z'-LYTE assay relative to control; settings: Insect cell
[10] = molecular target: Serine/threonine-protein kinase D3 (Homo sapiens) (UniProt O94806); assay: Inhibition of recombinant human full length GST-tagged PRKCN expressed in insect cells at 2 uM using Ser/Thr 17 as substrate measured after 1 hr by Z'-LYTE assay relative to control; settings: Insect cell
[11] = molecular target: Serine/threonine-protein kinase Nek9 (Homo sapiens) (UniProt Q8TD19); assay: Inhibition of recombinant human GST-tagged NEK9 (347-732 residues) expressed in insect cells at 2 uM using Ser/Thr 07 as substrate measured after 1 hr by Z'-LYTE assay relative to control; settings: Insect cell
HCT-116 = assay: Induction of apoptosis in human HCT-116 cells assessed as reduction in S phase at 1 micromol/L incubated for 24 hrs by FACS analysis; format: functional, cell-based; settings: dose 1.0 µmol/L
786-0 = assay: Antiproliferative activity against human 786-0 cells assessed as cell growth inhibition incubated for 24 hrs by MTS assay; format: functional, cell-based; settings: 786-0, 24 h
[12] = molecular target: Epidermal growth factor receptor (Homo sapiens) (UniProt P00533); assay: Inhibition of recombinant human GST-tagged EGFR (668-1210 residues) expressed in insect cells at 2 uM using Tyr 04 as substrate measured after 1 hr by Z'-LYTE assay relative to control; settings: Insect cell
[13] = molecular target: Protein kinase C epsilon type (Homo sapiens) (UniProt Q02156); assay: Inhibition of recombinant human full length GST-tagged PRKCE expressed in insect cells at 2 uM using Ser/Thr 07 as substrate measured after 1 hr by Z'-LYTE assay relative to control; settings: Insect cell
[14] = molecular target: Mast/stem cell growth factor receptor Kit (Homo sapiens) (UniProt P10721); assay: Inhibition of recombinant human His-tagged KIT (544-976 residues) expressed in insect cells at 2 uM using […] as substrate measured after 1 hr by Z'-LYTE assay relative to control
MDA-MB-361 [15] = assay: Antitumor activity against human MDA-MB-361 cells xenografted in female nude mouse model assessed as suppression in P-AKT at S473 level at 6 to 12 mg/kg, po qd administered as 5 days on/2 days off regimen for 4 cycles by immunoblot analysis; format: functional, organism-based; settings: dose 6-12 mg/kg, time 28.0 day
mTORC2 (Homo sapiens) = mTORC2 (Homo sapiens) (UniProt P42345+Q6R327+Q9BVC4+Q9BPZ7); settings: PC3MM2, dose 0.1-1 µM, time 6.0 hrs
[16] = molecular target: Serine/threonine-protein kinase PAK 6 (Homo sapiens) (UniProt Q9NQU5); assay: Inhibition of recombinant human full length His-tagged PAK6 expressed in insect cells at 2 uM using Ser/Thr 20 as substrate measured after 1 hr by Z'-LYTE assay relative to control; settings: Insect cell
MDA-MB-361 [17] = assay: Antitumor activity against human MDA-MB-361 cells xenografted in female nude mouse model assessed as suppression in P-AKT at S473 level at 50 mg/kg, iv administered once a week and measured at least 8 hrs by immunoblot analysis; format: functional, organism-based
[18] = molecular target: Casein kinase I isoform delta (Homo sapiens) (UniProt P48730); assay: Inhibition of recombinant human full-length GST-tagged CSNK1D expressed in insect cells at 2 uM using Ser/Thr 11 as substrate measured after 1 hr by Z'-LYTE assay relative to control; settings: Insect cell
A549 = assay: Antitumor activity against human A549 cells xenografted in female nude mouse model assessed as suppression in tumor growth at 50 mg/kg, po qd administered as 5 days on/2 days off regimen for 4 cycles relative to control; format: functional; settings: time 28 day
[19] = molecular target: Tyrosine-protein kinase FRK (Homo sapiens) (UniProt P42685); assay: Inhibition of recombinant human full-length GST-tagged FRK expressed in baculovirus expression system at 2 uM using Tyr 01 as substrate measured after 1 hr by Z'-LYTE assay relative to control
[20] = system: Tyrosine-protein kinase ABL1 (Homo sapiens), P00519 [T315I]; assay: Inhibition of recombinant human full-length His-tagged ABL1 T315I mutant expressed in insect cells at 2 uM using Tyr 02 as substrate measured after 1 hr by Z'-LYTE assay relative to control; settings: Insect cell

Sequence of Epidermal growth factor receptor (Homo sapiens) (P00533 whole entry, the tested form may be a part): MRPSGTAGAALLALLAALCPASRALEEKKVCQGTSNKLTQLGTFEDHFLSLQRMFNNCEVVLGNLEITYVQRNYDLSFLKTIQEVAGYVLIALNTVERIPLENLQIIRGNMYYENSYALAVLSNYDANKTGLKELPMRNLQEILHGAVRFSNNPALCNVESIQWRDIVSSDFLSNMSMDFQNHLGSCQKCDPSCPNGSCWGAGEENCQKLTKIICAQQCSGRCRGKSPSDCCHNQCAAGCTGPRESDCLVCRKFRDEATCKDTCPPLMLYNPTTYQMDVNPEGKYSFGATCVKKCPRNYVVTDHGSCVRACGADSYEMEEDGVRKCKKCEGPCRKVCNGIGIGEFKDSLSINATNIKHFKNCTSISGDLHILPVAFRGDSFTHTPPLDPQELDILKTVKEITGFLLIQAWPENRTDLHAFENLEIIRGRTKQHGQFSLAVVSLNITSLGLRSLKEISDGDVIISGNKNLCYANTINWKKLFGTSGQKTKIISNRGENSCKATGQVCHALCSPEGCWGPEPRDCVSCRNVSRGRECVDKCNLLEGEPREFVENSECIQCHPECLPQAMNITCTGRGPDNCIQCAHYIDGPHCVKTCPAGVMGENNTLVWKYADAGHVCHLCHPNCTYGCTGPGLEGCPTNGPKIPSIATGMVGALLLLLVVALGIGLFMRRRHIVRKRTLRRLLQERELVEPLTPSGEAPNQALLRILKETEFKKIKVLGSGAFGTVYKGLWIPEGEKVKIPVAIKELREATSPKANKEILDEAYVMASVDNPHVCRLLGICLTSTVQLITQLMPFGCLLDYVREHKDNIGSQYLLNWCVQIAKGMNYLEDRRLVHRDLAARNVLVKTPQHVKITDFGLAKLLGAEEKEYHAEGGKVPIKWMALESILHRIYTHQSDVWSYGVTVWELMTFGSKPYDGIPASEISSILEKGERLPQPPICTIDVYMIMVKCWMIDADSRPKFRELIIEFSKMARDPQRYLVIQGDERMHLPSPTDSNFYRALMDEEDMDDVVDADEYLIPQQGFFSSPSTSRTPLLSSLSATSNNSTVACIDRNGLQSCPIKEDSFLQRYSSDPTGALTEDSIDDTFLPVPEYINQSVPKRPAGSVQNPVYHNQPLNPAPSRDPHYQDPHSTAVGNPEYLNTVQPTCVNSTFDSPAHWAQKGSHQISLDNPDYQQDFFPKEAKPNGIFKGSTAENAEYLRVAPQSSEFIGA
Sequence of Serine/threonine-protein kinase PAK 6 (Homo sapiens) (Q9NQU5 whole entry, looked up): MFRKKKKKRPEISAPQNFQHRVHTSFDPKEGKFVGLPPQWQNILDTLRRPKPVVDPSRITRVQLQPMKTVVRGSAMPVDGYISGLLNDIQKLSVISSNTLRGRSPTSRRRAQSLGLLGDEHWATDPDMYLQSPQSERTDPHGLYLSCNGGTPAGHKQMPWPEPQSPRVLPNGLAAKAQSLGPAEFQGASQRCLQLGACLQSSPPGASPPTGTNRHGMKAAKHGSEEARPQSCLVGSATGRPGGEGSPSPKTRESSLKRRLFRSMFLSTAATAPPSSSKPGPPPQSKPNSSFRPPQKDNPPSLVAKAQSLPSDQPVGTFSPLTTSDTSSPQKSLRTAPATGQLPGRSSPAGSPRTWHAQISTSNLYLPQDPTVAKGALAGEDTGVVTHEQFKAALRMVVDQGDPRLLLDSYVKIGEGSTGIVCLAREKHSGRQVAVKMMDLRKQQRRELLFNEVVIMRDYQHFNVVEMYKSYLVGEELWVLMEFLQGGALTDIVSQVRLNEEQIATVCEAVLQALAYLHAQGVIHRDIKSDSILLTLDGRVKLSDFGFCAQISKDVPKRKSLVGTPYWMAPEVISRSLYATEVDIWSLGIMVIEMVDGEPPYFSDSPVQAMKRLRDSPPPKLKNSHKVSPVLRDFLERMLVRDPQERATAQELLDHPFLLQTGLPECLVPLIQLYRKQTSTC
Sequence of Ephrin type-A receptor 3 (Homo sapiens) (P29320 whole entry, the tested form may be a part, canonical isoform): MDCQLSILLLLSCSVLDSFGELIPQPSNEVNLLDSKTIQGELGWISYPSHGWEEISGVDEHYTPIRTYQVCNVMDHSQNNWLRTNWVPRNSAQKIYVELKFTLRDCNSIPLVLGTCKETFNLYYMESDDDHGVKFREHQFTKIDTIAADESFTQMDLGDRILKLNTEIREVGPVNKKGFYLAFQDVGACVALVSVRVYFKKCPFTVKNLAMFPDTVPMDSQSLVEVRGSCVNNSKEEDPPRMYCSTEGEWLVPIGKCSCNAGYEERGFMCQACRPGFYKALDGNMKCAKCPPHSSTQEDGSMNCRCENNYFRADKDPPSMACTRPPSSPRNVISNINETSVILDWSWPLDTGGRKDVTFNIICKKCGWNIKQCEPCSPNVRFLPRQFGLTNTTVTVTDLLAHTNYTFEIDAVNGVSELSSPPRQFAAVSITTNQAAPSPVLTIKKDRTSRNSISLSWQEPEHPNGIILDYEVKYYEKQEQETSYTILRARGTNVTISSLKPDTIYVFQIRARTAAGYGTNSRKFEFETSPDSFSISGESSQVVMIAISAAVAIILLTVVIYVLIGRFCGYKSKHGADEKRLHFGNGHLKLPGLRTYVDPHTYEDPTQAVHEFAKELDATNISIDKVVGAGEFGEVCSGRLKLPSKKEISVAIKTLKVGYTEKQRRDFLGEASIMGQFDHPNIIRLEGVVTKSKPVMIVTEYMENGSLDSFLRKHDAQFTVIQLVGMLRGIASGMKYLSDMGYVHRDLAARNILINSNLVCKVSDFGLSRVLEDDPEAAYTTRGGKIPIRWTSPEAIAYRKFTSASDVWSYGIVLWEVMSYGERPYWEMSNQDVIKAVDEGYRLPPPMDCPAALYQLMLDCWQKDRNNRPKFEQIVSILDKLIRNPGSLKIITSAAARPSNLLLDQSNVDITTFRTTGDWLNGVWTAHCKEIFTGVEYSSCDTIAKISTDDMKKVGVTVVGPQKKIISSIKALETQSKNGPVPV
Sequence of Protein kinase C epsilon type (Homo sapiens) (Q02156 whole entry, the tested form may be a part): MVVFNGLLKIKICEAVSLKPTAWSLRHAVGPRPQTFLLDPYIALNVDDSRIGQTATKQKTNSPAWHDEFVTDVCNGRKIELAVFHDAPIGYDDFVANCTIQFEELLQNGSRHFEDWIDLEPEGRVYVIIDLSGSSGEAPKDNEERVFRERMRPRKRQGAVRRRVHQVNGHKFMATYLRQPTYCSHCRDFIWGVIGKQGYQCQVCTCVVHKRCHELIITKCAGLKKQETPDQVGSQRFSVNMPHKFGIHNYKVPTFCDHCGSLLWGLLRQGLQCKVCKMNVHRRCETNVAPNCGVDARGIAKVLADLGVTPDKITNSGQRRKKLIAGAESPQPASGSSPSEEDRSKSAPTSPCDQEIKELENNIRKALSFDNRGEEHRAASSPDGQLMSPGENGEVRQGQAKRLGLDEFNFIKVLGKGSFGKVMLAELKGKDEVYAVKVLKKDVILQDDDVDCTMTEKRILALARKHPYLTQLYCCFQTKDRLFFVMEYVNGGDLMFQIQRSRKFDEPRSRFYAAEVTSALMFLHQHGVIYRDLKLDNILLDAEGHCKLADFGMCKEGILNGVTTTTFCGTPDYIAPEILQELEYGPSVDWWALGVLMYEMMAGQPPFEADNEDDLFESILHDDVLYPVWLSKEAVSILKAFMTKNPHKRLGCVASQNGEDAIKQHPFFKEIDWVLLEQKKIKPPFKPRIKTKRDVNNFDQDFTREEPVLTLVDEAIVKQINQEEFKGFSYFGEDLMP
Sequence of Tyrosine-protein kinase FRK (Homo sapiens) (P42685 whole entry): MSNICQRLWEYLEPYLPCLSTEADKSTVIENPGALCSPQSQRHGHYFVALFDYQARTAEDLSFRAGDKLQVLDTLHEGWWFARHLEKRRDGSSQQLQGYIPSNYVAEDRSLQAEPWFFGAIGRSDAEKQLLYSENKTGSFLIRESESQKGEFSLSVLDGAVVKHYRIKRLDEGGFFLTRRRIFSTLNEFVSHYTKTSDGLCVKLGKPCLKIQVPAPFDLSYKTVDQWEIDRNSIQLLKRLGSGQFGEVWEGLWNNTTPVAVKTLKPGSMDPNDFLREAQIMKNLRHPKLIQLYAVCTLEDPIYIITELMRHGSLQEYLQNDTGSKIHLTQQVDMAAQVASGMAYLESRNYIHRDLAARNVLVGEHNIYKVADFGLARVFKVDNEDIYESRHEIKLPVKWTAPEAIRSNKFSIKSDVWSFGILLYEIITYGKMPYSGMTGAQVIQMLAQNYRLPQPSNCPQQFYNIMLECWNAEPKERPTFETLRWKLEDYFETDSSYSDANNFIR
Sequence of Calcium/calmodulin-dependent protein kinase type II subunit beta (Homo sapiens) (Q13554 whole entry): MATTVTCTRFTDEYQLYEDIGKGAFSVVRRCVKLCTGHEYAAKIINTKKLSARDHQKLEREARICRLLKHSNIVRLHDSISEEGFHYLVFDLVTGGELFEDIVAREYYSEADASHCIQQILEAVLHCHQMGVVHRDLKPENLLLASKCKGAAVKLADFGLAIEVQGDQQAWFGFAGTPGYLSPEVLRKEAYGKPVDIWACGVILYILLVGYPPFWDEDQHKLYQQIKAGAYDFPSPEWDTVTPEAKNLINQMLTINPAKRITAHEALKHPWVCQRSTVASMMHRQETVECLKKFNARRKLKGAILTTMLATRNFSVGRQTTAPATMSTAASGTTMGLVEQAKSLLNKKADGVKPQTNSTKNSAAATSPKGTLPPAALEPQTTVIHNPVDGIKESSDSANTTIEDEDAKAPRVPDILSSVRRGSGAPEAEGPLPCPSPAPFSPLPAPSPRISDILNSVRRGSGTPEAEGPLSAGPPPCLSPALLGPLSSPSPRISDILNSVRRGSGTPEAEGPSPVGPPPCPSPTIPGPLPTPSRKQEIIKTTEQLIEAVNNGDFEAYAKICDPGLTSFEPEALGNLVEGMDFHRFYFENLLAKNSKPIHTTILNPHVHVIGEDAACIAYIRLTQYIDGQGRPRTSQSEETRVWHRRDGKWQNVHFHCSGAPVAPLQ

CNC(=O)Nc1ccc(-c2nc(N3CC4CCC(C3)O4)c3cnn(C4CCC5(CC4)OCCO5)c3n2)cc1
inhibition [1]: 1%
inhibition [2]: 7%
Activity (U-87 MG): Dose-Dependent Effect
inhibition [3]: 12%
inhibition [4]: 15%
Activity (PC3MM2): Active
Activity (MDA-MB-361 [5]): Active
inhibition [6]: 5%
inhibition [7]: 4%
inhibition [8]: -6%
inhibition [9]: 8%
inhibition [10]: 4%
inhibition [11]: -2%
Activity (HCT-116): Active
IC50 (786-0): 120 nM
inhibition [12]: 1%
inhibition [13]: 15%
inhibition [14]: 10%
Activity (MDA-MB-361 [15]): Active
inhibition (mTORC2 (Homo sapiens)): Active
inhibition [16]: 9%
Activity (MDA-MB-361 [17]): Active
inhibition [18]: 2%
Activity (A549): 100%
inhibition [19]: 3%
inhibition [20]: 0%
